Test results from patent publication US20070148660A1, “Treatment of maladaptive substance use with H-ras antagonists” (The Regents of the University of California, priority 2005, published 2007).
Marks after values point to notes of the source that are not given here.

Columns and labels:
[1] = system: adaptin β2 with the AMPAR subunit GluR1; conditions: 100 mM ethanol, 15 min, hippocampal slices
Description: (§1) Transverse hippocampal slices ([…]) were prepared from 10- to 12-week-old C57BL/6J mice. Slices were allowed to recover for 90 min in artificial cerebrospinal fluid (aCSF) saturated with 95% O2/5% CO2 containing (in mM): 126 NaCl, 1.2 KCl, 1.2 NaH2PO4, 1.2 MgCl2, 2.4 CaCl2, 18 NaHCO3, and 11 glucose. Following recovery, slices were treated with aCSF (control) or ethanol at room temperature, after which the slices were rinsed in cold aCSF, and used either for cross-linking experiments, for Ras activity assay, or for immunoprecipitation. In experiments using Tat-H-Ras DN or the Tat-peptide, the slices were pretreated with either aCSF (control) or 2 μM Tat-H-Ras DN or Tat-peptide for 2 hrs at room temperature, followed by ethanol treatments.
(§2) The treated slices were homogenized in ice-cold buffer containing 1% deoxycholate, protease and phosphatase inhibitors and (in mM): 250 sucrose, 20 Tris-HCl (pH 7.5), 2 EDTA and 10 EGTA. 500 μg of the protein was diluted with 1× immunoprecipitation buffer (1% Triton X-100 and (in mM): 150 NaCl, 10 Tris HCl (pH 7.4), 1 EDTA, 1 EGTA and 0.2 sodium orthovanadate) and incubated with 5 μg of the appropriate antibody, followed by an overnight incubation at 4° C. with protein G agarose beads. The beads were extensively washed, re-suspended in 2× sample buffer and boiled for 5-10 min. The samples were then subjected to SDS-PAGE followed by Western blotting with the appropriate antibodies.
(§3) Proteins were separated by SDS-PAGE and blotted onto a nitrocellulose membrane. After blocking, the membranes were incubated with the specific primary antibody, followed by horseradish peroxidase-conjugated secondary antibody. Detection was obtained followed by enhanced chemiluminescent reaction (Amersham Biosciences), and processed using the STORM PhosphoImager (Amersham Biosciences). Results were quantified by NIH Image 1.61.

Src kinase = conditions: 100 mM ethanol, 15 min, hippocampal slices
Description: as §1, §2, §3

adaptin β2 with TrkB = conditions: 100 mM ethanol, 15 min, hippocampal slices
Description: as §1, §2, §3

NMDAR [2] = test: NMDAR-mediated fEPSPs, hippocampal CA1 field recording; format: cell-based, mouse; conditions: bath application of 80 mM ethanol, n=11
Description: Electrophysiological recordings were performed in C57BL/6J mice ranging from P21 to P26. Briefly, mice were anesthetized with halothane and decapitated as per University of California, San Francisco animal care guidelines. Horizontal sections of the hippocampus ([…]) were prepared with a vibratome (Leica, Nussloch, Germany). Slices were placed in a holding chamber and allowed to recover for at least 1 hr before being placed in the recording chamber and superfused with aCSF saturated with 95% O2/5% CO2 and containing (in mM): 119 NaCl, 1.6 KCl, 1.0 NaH2PO4, 1.3 MgCl2 (for EPSCs) or 0.01 MgCl2 (for field excitatory postsynaptic potentials (fEPSPs)), 2.5 CaCl2, 26.2 NaHCO3 and 11 glucose. […]
fEPSPs were recorded using a MultiClamp 700A amplifier (Axon Instruments, Union City, Calif.) with […] patch pipettes filled with 1 M NaCl and 25 mM HEPES. To evoke fEPSPs, Schaffer collateral/commissural afferents in hippocampal CA1 region were stimulated with 0.1 Hz pulses using steel bipolar microelectrodes at intensities adjusted to produce an evoked response that was 50% of the maximal recorded fEPSP for each recording. fEPSPs were filtered at 1 kHz, digitized at 10 kHz and collected on-line using with pClamp 9 (Axon Instrument, Union City, Calif.). […]

[3] = system: NR2A-adaptin β2 association; conditions: 100 mM ethanol, 15 min, L(-tk) cells NR1+NR2A + PSD-95
Description: L(−tk) were cultured on 100 mm plates. When cells reached 75% confluency, they were transfected with 5 μg of PSD95-GFP cDNA using LipofectAMINE PLUS in accordance with the manufacturer's instructions. 24 hrs after transfection, the expression of the NMDAR subunits NR1+NR2A or NR1+NR2B was induced with […] dexamethasone in DMEM containing 10% FBS, and 0.5 mM ketamine as previously described (21). After 3 days of induction, the cross-linking or immunoprecipitation studies were conducted. Homogenates were obtained as described in (17).
as §2
Proteins were separated by SDS-PAGE and blotted onto a nitrocellulose membrane. […] Results were quantified by NIH Image 1.61.

NMDAR [4] = test: NMDAR-mediated EPSCs, whole-cell voltage clamp, hippocampal CA1; format: cell-based, mouse; conditions: for slowing of the weighted decay time compared to the control: 80 mM ethanol; for % Fast / τF / τS / τW: double exponential fit; for τW: 0 min 47.4 ms
Description: Electrophysiological recordings were performed in C57BL/6J mice ranging from P21 to P26. Briefly, mice were anesthetized with halothane and decapitated as per University of California, San Francisco animal care guidelines. Horizontal sections of the hippocampus ([…]) were prepared with a vibratome (Leica, Nussloch, Germany). Slices were placed in a holding chamber and allowed to recover for at least 1 hr before being placed in the recording chamber and superfused with aCSF saturated with 95% O2/5% CO2 and containing (in mM): 119 NaCl, 1.6 KCl, 1.0 NaH2PO4, 1.3 MgCl2 (for EPSCs) or 0.01 MgCl2 (for field excitatory postsynaptic potentials (fEPSPs)), 2.5 CaCl2, 26.2 NaHCO3 and 11 glucose. Picrotoxin (100 μM) was added to block gamma-aminobutyric acid-A (GABAA) receptor-mediated inhibitory synaptic transmission, and CNQX (for EPSCs) or NBQX (for fEPSPs) (10 μM) was added to block α-amino-3-hydroxy-5-methyl-4-isoxalepropionate (AMPA)/Kainate receptors. Cells were visualized using infrared differential interference contrast video microscopy.
Whole-cell voltage clamp-recordings were made using an Axopatch ID or a MultiClamp 700A amplifier (Axon Instruments, Union City, Calif.). Electrodes (3.5-5.0 MΩ) contained (in mM): 120 Cesium methansulfonate, 20 HEPES, 0.4 EGTA, 2.8 NaCl, 5 TEA-Cl, 2.5 MgATP, and 0.25 NaGTP (pH 7.2-7.3), buffer at 270-285 mOsm. Series resistance (10-30 MΩ) and input resistance were monitored on-line with a 4 mV depolarizing step (50 ms) given just after every afferent stimulus. Recordings from the CA1 region of the hippocampus were obtained with a bipolar stimulating electrode that was placed 100-300 μm rostral to the recording electrode and was used to stimulate excitatory afferents at 0.1 Hz. Neurons were voltage-clamped at +40 mV to evoke NMDAR-mediated EPSCs. At this potential, NMDARs have a maximal open probability and the Mg^2+ block is removed. EPSCs were filtered at 2 kHz, digitized at 5-10 kHz and collected on-line using Igor Pro software (Wavemetrics, Lake Oswego, Oreg.) or pClamp 9 (Axon Instruments, Union City, Calif.). NMDAR example traces were constructed by averaging 20 EPSCs (200 sec) elicited at +40 mV during baseline, ethanol application, drug application or drug application with ethanol. To calculate the decay time (τ), Igor Pro software was used to fit exponential decay curves to averaged NMDAR-mediated EPSCs using the formula: y=A1exp(−invTau1*x)+A2exp(−invTau2X).

[5] = 15 min exposure to ethanol (80 mM), n=6
[6] = 30 min exposure to ethanol (80 mM), n=6

**Q.** Which results are given for CCO [ethanol]?
**A.** interaction between GluR1 and adaptin β2 [1]: no change; decrease in the levels of active phosphorylated Src (Src kinase): approximately 40%; interaction between TrkB and adaptin β2 (adaptin β2 with TrkB): no change; inhibition of NMDAR-mediated fEPSPs (NMDAR [2]): 47+8%; association of NR2A with adaptin β2 [3]: increase; inhibition of EPSCs at low ethanol concentration (NMDAR [4]; 25 mM ethanol, n=18, data not shown): 24±6%; effect of ethanol on the remaining portion of the NMDAR EPSCs (NMDAR [4]; 80 mM ethanol bath applied after NVP-AAM077 0.4 μM): did not alter; slowing of the weighted decay time compared to the control (NMDAR [4]; after 15 min, n=6): 33±14%; slowing of the weighted decay time compared to the control (NMDAR [4]; after 30 min, n=6): 70±29%; % Fast (NMDAR [4]; [5]): 12.5 ± 3.1%; τF (NMDAR [4]; [5]): 34.5 ± 2.1 ms; τS (NMDAR [4]; [5]): 256.3 ± 51.8* ms; τW (NMDAR [4]; [5]): 62.2 ± 10* ms; τW (NMDAR [4]; 15 min exposure to ethanol (80 mM), n=6, listed as Ethanol): 62 ± 10 ms; % Fast (NMDAR [4]; [6]): 112.6 ± 2.0%; τF (NMDAR [4]; [6]): 42.4 ± 4.4* ms; τS (NMDAR [4]; [6]): 354.0 ± 91.1 ms; τW (NMDAR [4]; [6]): 77.8 ± 14.1* ms; τW (NMDAR [4]; 30 min exposure to ethanol (80 mM), n=6, listed as Ethanol): 78 ± 14 ms; inhibition of NMDAR-mediated EPSCs (NMDAR [4]; bath application of 80 mM ethanol, n=9, data not shown): 37±7%; further decrease in remaining current (NMDAR [4]; bath application of ethanol in the presence of ifenprodil (3 μM)): 36%; total reduction of NMDAR EPSCs (NMDAR [4]; ifenprodil (3 μM) plus ethanol, n=6): 73±7%
